Measured values published in paper PMC10962654 (Journal of Food and Drug Analysis, 2023).
Structures can show the parent of a compound that is named as a salt. Where two headings read alike, the source gives them in different places.

Tests used:
α-HBDH = assay: Plasma α-HBDH; assay type: in vivo, Sprague Dawley rats; settings: MI/R rats, Sigmoid-Emax model
[1] = MI/R rats, plasma, n = 6
cTn I = assay: Plasma cTn I; assay type: in vivo, Sprague Dawley rats; settings: MI/R rats, Sigmoid-Emax model
IMA = assay: Plasma IMA; assay type: in vivo, Sprague Dawley rats; settings: MI/R rats, Sigmoid-Emax model
CK-MB = assay: Plasma CK-MB; assay type: in vivo, Sprague Dawley rats; settings: MI/R rats, Sigmoid-Emax model
[2] = system: CK-MB, IMA, cTn I, and α-HBDH; assay: Cardioprotection in MI/R rats judged on the four myocardial injury biomarkers; assay type: in vivo, Sprague Dawley rats; settings: plasma, ELISA, i.v.

Row | Compound | Emax (maximal effect) of optimal PK/PD equation, Δα-HBDH (α-HBDH; GHI-H (10 mL/kg, i.v.)) | Emax (maximal effect) of optimal PK/PD equation, Δα-HBDH (α-HBDH; GHI-L ([…], i.v.)) | Emax (maximal effect) of optimal PK/PD equation, Δα-HBDH (α-HBDH; GHI-M (5 mL/kg, i.v.)) | CL1 ([1]; GHI-H (GHI 10 mL/kg, i.v.)) [L/h/kg] | CL2 ([1]; GHI-H (GHI 10 mL/kg, i.v.)) [L/h/kg] | K10 ([1]; GHI-H (GHI 10 mL/kg, i.v.)) [h⁻¹] | K12 ([1]; GHI-H (GHI 10 mL/kg, i.v.)) [h⁻¹] | K21 ([1]; GHI-H (GHI 10 mL/kg, i.v.)) [h⁻¹] | Q ([1]; GHI-H (GHI 10 mL/kg, i.v.)) [L/h/kg] | V1 ([1]; GHI-H (GHI 10 mL/kg, i.v.)) [L/kg] | V2 ([1]; GHI-H (GHI 10 mL/kg, i.v.)) [L/kg] | t1/2α ([1]; GHI-H (GHI 10 mL/kg, i.v.)) [min] | CL1 ([1]; GHI-L (GHI […], i.v.)) [L/h/kg] | CL2 ([1]; GHI-L (GHI […], i.v.)) [L/h/kg] | K10 ([1]; GHI-L (GHI […], i.v.)) [h⁻¹] | K12 ([1]; GHI-L (GHI […], i.v.)) [h⁻¹] | K21 ([1]; GHI-L (GHI […], i.v.)) [h⁻¹] | Q ([1]; GHI-L (GHI […], i.v.)) [L/h/kg] | V1 ([1]; GHI-L (GHI […], i.v.)) [L/kg] | V2 ([1]; GHI-L (GHI […], i.v.)) [L/kg] | further results
1 | O=C(/C=C/c1ccc(O)c(O)c1)O[C@@H]1C[C@](O)(C(=O)O)C[C@@H](O)[C@H]1O [Chlorogenic acid, chlorogenic acid] | 86.524 | 48.745 | 72.774 | 2.554 ± 0.092 | 10.403 ± 0.914 | 6.701 ± 1.078 | 27.459 ± 6.003 | 8.203 ± 0.823 | 10.398 ± 0.912 | 0.389 ± 0.059 | 1.273 ± 0.103 | 1.08 ± 0.18 | 2.669 ± 0.169 | 8.99 ± 0.907 | 4.274 ± 1.912 | 14.327 ± 4.021 | 3.902 ± 0.294 | 8.991 ± 0.908 | 0.672 ± 0.201 | 2.304 ± 0.146 | t1/2α ([1]; GHI-L (GHI […], i.v.)): 2.04 ± 0.54 min; CL1 ([1]; GHI-M (GHI 5 mL/kg, i.v.)): 1.939 ± 0.146 L/h/kg; CL2 ([1]; GHI-M (GHI 5 mL/kg, i.v.)): 7.19 ± 0.505 L/h/kg; K10 ([1]; GHI-M (GHI 5 mL/kg, i.v.)): 3.987 ± 0.663 h⁻¹; K12 ([1]; GHI-M (GHI 5 mL/kg, i.v.)): 14.709 ± 1.766 h⁻¹; K21 ([1]; GHI-M (GHI 5 mL/kg, i.v.)): 4.84 ± 0.29 h⁻¹; Q ([1]; GHI-M (GHI 5 mL/kg, i.v.)): 7.190 ± 0.504 L/h/kg; V1 ([1]; GHI-M (GHI 5 mL/kg, i.v.)): 0.496 ± 0.08 L/kg; V2 ([1]; GHI-M (GHI 5 mL/kg, i.v.)): 1.49 ± 0.142 L/kg; t1/2α ([1]; GHI-M (GHI 5 mL/kg, i.v.)): 1.86 ± 0.18 min; Emax (maximal effect) of optimal PK/PD equation, ΔcTn I (cTn I; GHI-M (5 mL/kg, i.v.)): 7.28; Emax (maximal effect) of optimal PK/PD equation, ΔIMA (IMA; GHI-L ([…], i.v.)): 28.211
2 | O=C(O)/C=C/c1ccc(O)cc1 [p-Coumaric acid, p-coumaric acid] | 89.907 | 37.993 | 71.86 | 3.469 ± 0.187 | 6.658 ± 2.185 | 4.878 ± 0.808 | 9.545 ± 4.156 | 10.071 ± 3.659 | 6.656 ± 2.183 | 0.723 ± 0.095 | 0.669 ± 0.07 | 2.04 ± 0.6 | 3.317 ± 0.369 | 5.909 ± 1.304 | 8.039 ± 2.934 | 14.117 ± 4.736 | 4.662 ± 1.024 | 5.909 ± 1.300 | 0.462 ± 0.17 | 1.272 ± 0.124 | Emax (maximal effect) of optimal PK/PD equation, ΔCK-MB (CK-MB; GHI-H (10 mL/kg, i.v.)): 15.798; Emax (maximal effect) of optimal PK/PD equation, ΔCK-MB (CK-MB; GHI-L ([…], i.v.)): 6.058; Emax (maximal effect) of optimal PK/PD equation, ΔCK-MB (CK-MB; GHI-M (5 mL/kg, i.v.)): 15.943; t1/2α ([1]; GHI-L (GHI […], i.v.)): 1.8 ± 0.54 min; CL1 ([1]; GHI-M (GHI 5 mL/kg, i.v.)): 2.808 ± 0.134 L/h/kg; CL2 ([1]; GHI-M (GHI 5 mL/kg, i.v.)): 6.918 ± 2.46 L/h/kg; K10 ([1]; GHI-M (GHI 5 mL/kg, i.v.)): 4.277 ± 0.897 h⁻¹; K12 ([1]; GHI-M (GHI 5 mL/kg, i.v.)): 11.023 ± 5.384 h⁻¹; K21 ([1]; GHI-M (GHI 5 mL/kg, i.v.)): 10.302 ± 3.876 h⁻¹; Q ([1]; GHI-M (GHI 5 mL/kg, i.v.)): 6.919 ± 2.461 L/h/kg; V1 ([1]; GHI-M (GHI 5 mL/kg, i.v.)): 0.677 ± 0.122 L/kg; V2 ([1]; GHI-M (GHI 5 mL/kg, i.v.)): 0.7 ± 0.142 L/kg; t1/2α ([1]; GHI-M (GHI 5 mL/kg, i.v.)): 2.22 ± 1.5 min; Emax (maximal effect) of optimal PK/PD equation, ΔcTn I (cTn I; GHI-H (10 mL/kg, i.v.)): 9.007; Emax (maximal effect) of optimal PK/PD equation, ΔcTn I (cTn I; GHI-L ([…], i.v.)): 2.907; Emax (maximal effect) of optimal PK/PD equation, ΔcTn I (cTn I; GHI-M (5 mL/kg, i.v.)): 7.258; Emax (maximal effect) of optimal PK/PD equation, ΔIMA (IMA; GHI-H (10 mL/kg, i.v.)): 62.712; Emax (maximal effect) of optimal PK/PD equation, ΔIMA (IMA; GHI-L ([…], i.v.)): 19.558; Emax (maximal effect) of optimal PK/PD equation, ΔIMA (IMA; GHI-M (5 mL/kg, i.v.)): 49.851
3 | kaempferol-3-O-rutinoside | – | – | – | – | – | – | – | – | – | – | – | – | – | – | – | – | – | – | – | – | Emax (maximal effect) of optimal PK/PD equation, ΔCK-MB (CK-MB; GHI-L ([…], i.v.)): 11.04
4 | COc1ccc(CCN(C)CCCC(C#N)(c2ccc(OC)c(OC)c2)C(C)C)cc1OC (stereo not shown) [verapamil hydrochloride, Verapamil hydrochloride] | – | – | – | – | – | – | – | – | – | – | – | – | – | – | – | – | – | – | – | – | elevated level of the four biomarkers induced by MI/R [2]: declined to different degrees
